Measured values from US20260294922A1, “Inhibitors of JUN N-Terminal Kinases (JNK1, JNK2, and/or JNK3) and Mitogen-Activated Protein Kinases (MAPK8, MAPK9, and/or MAPK10) and Methods of Using Same” (Baylor College of Medicine, priority 2023, published 2026).
Converted amounts (≈) assume the structure as drawn.

Tests used:
JNK1 [1] = target: T1, JNK1 (Homo sapiens, UniProt P45983); assay: JNK1 kinase (intrinsic ATPase, Kinase-Glo) assay; type: biochemical; settings: for Ki: Table 3b, read-out: Ki(app) JNK1
T1 sequence (P45983 whole entry): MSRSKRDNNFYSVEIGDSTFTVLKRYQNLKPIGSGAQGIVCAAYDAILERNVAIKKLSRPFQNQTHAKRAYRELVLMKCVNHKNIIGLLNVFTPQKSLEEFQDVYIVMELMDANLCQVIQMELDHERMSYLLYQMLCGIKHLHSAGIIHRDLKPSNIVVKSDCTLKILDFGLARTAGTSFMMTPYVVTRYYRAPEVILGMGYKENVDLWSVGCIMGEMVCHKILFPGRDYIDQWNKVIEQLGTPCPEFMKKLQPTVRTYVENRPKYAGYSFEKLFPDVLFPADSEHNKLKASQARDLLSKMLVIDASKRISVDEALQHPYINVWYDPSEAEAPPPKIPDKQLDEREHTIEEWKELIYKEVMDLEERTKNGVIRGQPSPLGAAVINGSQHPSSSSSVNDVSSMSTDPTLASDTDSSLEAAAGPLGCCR
Procedure: JNK1, JNK2, and JNK3 hydrolyze ATP to ADP without any peptide substrates. This allows a very robust and fast endpoint assay where the remaining concentration of ATP is measured (BMG ClarioStar Plus plate reader) using the Kinase-Glo Assay kit from Promega (V6711). A luminescence signal is measured, which is produced by the catalytic conversion of beetle luciferin to oxyluciferin by luciferase. Potential inhibition of luciferase (i.e., false negatives) is easily detected, because assays without kinase are always included, and less ATP than is present in this control reaction could also indicate an inhibition of luciferase, which can be excluded by a counter screen with only luciferase.
To mitigate violation of the linear initial velocity principle, which is a problem in end-point assays when doing dose-responses, the enzyme concentration was carefully optimized, in a total assay volume of 25 μL. […] The kinase reaction was done for 30 or 60 min at 30° C., and detection of leftover ATP was measured according to Promega's protocol. […] Fractional activities were obtained from normalized data. Non-linear regression (GraphPad Prism7) and a modified Morrison equation for tight binding was used to determine apparent Ki values for inhibitors, assuming no particular mode of inhibition. An orthogonal binding assay (LanthaScreen) was outsourced to ThermoFisher Scientific's SelectScreen Services to determine IC50 values.

[2] = In vitro metabolism in human liver microsomes; settings: human, microsomes
Procedure: (§1) The target product profile seeks to deliver JNK inhibitor as a once daily oral administration. To prioritize compounds for further development, in vitro metabolism of several CDD JNK inhibitors were determined to approximate the plasma half-life and the rate of metabolism of the compounds in vivo.

JNK2 [3] = target: T2, JNK2 (Homo sapiens, UniProt P45984); assay: JNK2 kinase (intrinsic ATPase, Kinase-Glo) assay; type: biochemical; settings: for Kd: Table 3a, read-out: Kd JNK2
T2 sequence (P45984 whole entry): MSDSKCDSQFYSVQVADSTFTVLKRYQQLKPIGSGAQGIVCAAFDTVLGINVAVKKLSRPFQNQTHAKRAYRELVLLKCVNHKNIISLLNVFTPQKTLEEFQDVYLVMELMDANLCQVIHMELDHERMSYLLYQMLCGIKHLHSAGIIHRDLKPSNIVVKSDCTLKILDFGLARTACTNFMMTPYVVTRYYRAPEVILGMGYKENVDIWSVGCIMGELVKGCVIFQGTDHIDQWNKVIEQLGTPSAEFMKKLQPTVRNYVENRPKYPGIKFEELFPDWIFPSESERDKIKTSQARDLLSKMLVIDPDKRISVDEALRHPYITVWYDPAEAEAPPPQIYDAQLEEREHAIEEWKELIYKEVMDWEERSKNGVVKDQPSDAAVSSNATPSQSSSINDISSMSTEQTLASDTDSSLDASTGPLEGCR

JNK3 = JNK3 (Homo sapiens, UniProt P53779); assay: JNK3 kinase (intrinsic ATPase, Kinase-Glo) assay; type: biochemical; settings: for Kd: Table 3a, read-out: Kd JNK3
Chain of JNK3 (P53779 whole entry): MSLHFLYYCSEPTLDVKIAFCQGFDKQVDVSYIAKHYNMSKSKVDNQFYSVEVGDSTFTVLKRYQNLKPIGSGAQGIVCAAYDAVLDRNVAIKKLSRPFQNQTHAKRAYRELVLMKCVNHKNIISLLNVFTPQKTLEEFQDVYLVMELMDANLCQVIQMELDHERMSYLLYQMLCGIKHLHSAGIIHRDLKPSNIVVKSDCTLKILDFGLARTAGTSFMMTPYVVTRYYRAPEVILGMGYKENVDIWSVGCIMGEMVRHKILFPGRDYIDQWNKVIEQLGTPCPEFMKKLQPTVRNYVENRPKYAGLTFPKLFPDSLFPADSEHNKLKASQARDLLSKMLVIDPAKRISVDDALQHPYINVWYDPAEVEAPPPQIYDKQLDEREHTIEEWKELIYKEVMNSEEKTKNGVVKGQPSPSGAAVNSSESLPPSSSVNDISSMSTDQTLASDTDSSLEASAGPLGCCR

[4] = In vitro metabolism in mouse liver microsomes; settings: mouse, microsomes
Procedure: as §1

JNK1 [5] = target: T1, JNK1; assay: Promega NanoBRET intracellular target engagement (tracer K10 displacement), JNK1; type: cell-based
JNK2 [6] = target: T2, JNK2; assay: Promega NanoBRET intracellular target engagement (tracer K10 displacement), JNK2; type: cell-based

| solubility (Solubility) [µM] | Kd (JNK1 [1]) [nM] | half-life [2] [h] | Kd (JNK2 [3]) [nM] | Kd (JNK3) [nM] | half-life [4] [h] | Ki (JNK2 [3]) [nM] | Ki (JNK3) [nM] | Ki (JNK1 [1]) [nM] | IC50 (JNK1 [5]) [nM] | IC50 (JNK2 [6]) [nM] | Structure (SMILES) |
| --- | --- | --- | --- | --- | --- | --- | --- | --- | --- | --- | --- |
| 3.8 (≈ 1.74 µg/mL) | 0.07 ± 0.05 | 2.22 | 0.73 ± 0.1 | 0.32 ± 0.04 | 2.07 | – | – | – | – | – | CN(C)C(=O)c1cc(NC(=O)c2cc3c(-c4cnc5[nH]ccc5c4)cncc3s2)ccc1O [CDD-3111, N-(3-(dimethylcarbamoyl)-4-hydroxyphenyl)-4-(1H-pyrrolo[2,3-b]pyridin-5-yl)thieno[2,3-c]pyridine-2-carboxamide] |
| 0.6 (≈ 0.264 µg/mL) | 4.91 ± 0.9 | – | 3.5 ± 1.4 | 5.82 ± 0.92 | – | – | – | – | – | – | CN(C)C(=O)c1cccc(NC(=O)c2cc3c(-c4cnc5[nH]ccc5c4)cccc3s2)c1 [CDD-2632, N-(3-(dimethylcarbamoyl)phenyl)-4-(1H-pyrrolo[2,3-b]pyridin-5-yl)benzo[b]thiophene-2-carboxamide] |
| 1.4 (≈ 0.594 µg/mL) | 1.5 ± 0.2 | 14.8 | 6.3 ± 0.6 | 4.6 ± 0.7 | 1.43 | – | – | – | – | – | O=C(Nc1ccc2c(c1)C(=O)NC2)c1cc2c(-c3cnc4[nH]ccc4c3)cccc2s1 [CDD-3115, N-(3-oxoisoindolin-5-yl)-4-(1H-pyrrolo[2,3-b]pyridin-5-yl)benzo[b]thiophene-2-carboxamide] |
| – | 11.3 ± 3.4 | 2.88 | 49.8 ± 9.7 | 15.7 ± 1.2 | 1.42 | – | – | – | – | – | CN(C)C(=O)c1cc(NC(=O)c2cc3c(-c4cnc5[nH]ccc5c4)cccc3s2)ccc1OC(F)(F)F [CDD-2857, N-(3-(dimethylcarbamoyl)-4-(trifluoromethoxy)phenyl)-4-(1H-pyrrolo[2,3-b]pyridin-5-yl)benzo[b]thiophene-2-carboxamide] |
| 0.6 (≈ 0.253 µg/mL) | – | – | – | – | – | 339 | 167 | – | – | – | O=C(Nc1ccc(C(F)(F)F)cc1)c1ccn2ncc(-c3cnc4[nH]ccc4c3)c2c1 [CDD-2483, 3-(1H-pyrrolo[2,3-b]pyridin-5-yl)-N-(4-(trifluoromethyl)phenyl)pyrazolo[1,5-a]pyridine-5-carboxamide] |
| > 200 | – | 5.4 | – | – | 2.4 | – | – | 30 | – | – | N#Cc1cc(NC(=O)c2cc3c(-c4cnc5[nH]ccc5c4)cccc3s2)ccc1O [CDD-3126, N-(3-cyano-4-hydroxyphenyl)-4-(1H-pyrrolo[2,3-b]pyridin-5-yl)benzo[b]thiophene-2-carboxamide] |
| – | 10.4 ± 1.4 | 4.8 | 40.7 ± 5.5 | 10.9 ± 0.7 | 3.15 | – | – | – | – | – | O=C(Nc1ccc(O)c(C(=O)NCC2CC2)c1)c1cc2c(-c3cnc4[nH]ccc4c3)cccc2s1 [CDD-3113, N-(3-((cyclopropylmethyl)carbamoyl)-4-hydroxyphenyl)-4-(1H-pyrrolo[2,3-b]pyridin-5-yl)benzo[b]thiophene-2-carboxamide] |
| – | 7.8 ± 1.4 | – | 15.4 ± 1.4 | 9.9 ± 1.3 | – | – | – | – | – | – | COc1ccc(NC(=O)c2cc3c(-c4cnc5[nH]ccc5c4)cccc3s2)cc1 [CDD-2629, N-(4-methoxyphenyl)-4-(1H-pyrrolo[2,3-b]pyridin-5-yl)benzo[b]thiophene-2-carboxamide] |
| 3.4 (≈ 1.6 µg/mL) | 0.9 ± 0.2 | 0.517 | 2.1 ± 0.3 | 2.9 ± 0.4 | 1.9 | – | – | – | – | – | CCN(CC)Cc1cc(NC(=O)c2cc3c(-c4cnc5[nH]ccc5c4)cccc3s2)ccc1O [CDD-3117, N-(3-((diethylamino)methyl)-4-hydroxyphenyl)-4-(1H-pyrrolo[2,3-b]pyridin-5-yl)benzo[b]thiophene-2-carboxamide] |
| – | 14.3 ± 1.6 | – | 67 ± 11 | 24.3 ± 1.9 | – | – | – | – | – | – | CN(C)C(=O)c1cc(NC(=O)c2cc3c(-c4cnc5[nH]ccc5c4)cccc3s2)ccc1C(F)(F)F [CDD-2732, N-(3-(dimethylcarbamoyl)-4-(trifluoromethyl)phenyl)-4-(1H-pyrrolo[2,3-b]pyridin-5-yl)benzo[b]thiophene-2-carboxamide] |
| – | – | – | – | – | – | – | – | 860 | 60000 | 58000 | CNC(=O)CN1[C@H](CC(=O)NCCCN(C)c2ccc(F)cc2)CNC[C@H]1C [CDD-2272, N-(3-((4-fluorophenyl)(methyl)amino)propyl)-2-((2R,6R)-6-methyl-1-(2-(methylamino)-2-oxoethyl)piperazin-2-yl)acetamide] |
| 1.8 (≈ 0.739 µg/mL) | 0.2 ± 0.18 | 1.19 | 0.32 ± 0.12 | 0.33 ± 0.03 | 0.513 | – | – | – | 49500 | 5300 | CNC(=O)c1ccc(NC(=O)c2ccn3ncc(-c4cnc5[nH]ccc5c4)c3c2)cc1 [CDD-2461, N-(4-(methylcarbamoyl)phenyl)-3-(1H-pyrrolo[2,3-b]pyridin-5-yl)pyrazolo[1,5-a]pyridine-5-carboxamide] |
